# Read-outs that look alike come from different tables or passages of the source.
# What was measured:
# [1] = target: T1, HDAC6 (Homo sapiens, UniProt Q9UBN7); assay: Human HDAC enzyme inhibitor Fluor-de-Lys assay, HDAC6; assay type: biochemical
# T1 sequence (Q9UBN7 1-1215): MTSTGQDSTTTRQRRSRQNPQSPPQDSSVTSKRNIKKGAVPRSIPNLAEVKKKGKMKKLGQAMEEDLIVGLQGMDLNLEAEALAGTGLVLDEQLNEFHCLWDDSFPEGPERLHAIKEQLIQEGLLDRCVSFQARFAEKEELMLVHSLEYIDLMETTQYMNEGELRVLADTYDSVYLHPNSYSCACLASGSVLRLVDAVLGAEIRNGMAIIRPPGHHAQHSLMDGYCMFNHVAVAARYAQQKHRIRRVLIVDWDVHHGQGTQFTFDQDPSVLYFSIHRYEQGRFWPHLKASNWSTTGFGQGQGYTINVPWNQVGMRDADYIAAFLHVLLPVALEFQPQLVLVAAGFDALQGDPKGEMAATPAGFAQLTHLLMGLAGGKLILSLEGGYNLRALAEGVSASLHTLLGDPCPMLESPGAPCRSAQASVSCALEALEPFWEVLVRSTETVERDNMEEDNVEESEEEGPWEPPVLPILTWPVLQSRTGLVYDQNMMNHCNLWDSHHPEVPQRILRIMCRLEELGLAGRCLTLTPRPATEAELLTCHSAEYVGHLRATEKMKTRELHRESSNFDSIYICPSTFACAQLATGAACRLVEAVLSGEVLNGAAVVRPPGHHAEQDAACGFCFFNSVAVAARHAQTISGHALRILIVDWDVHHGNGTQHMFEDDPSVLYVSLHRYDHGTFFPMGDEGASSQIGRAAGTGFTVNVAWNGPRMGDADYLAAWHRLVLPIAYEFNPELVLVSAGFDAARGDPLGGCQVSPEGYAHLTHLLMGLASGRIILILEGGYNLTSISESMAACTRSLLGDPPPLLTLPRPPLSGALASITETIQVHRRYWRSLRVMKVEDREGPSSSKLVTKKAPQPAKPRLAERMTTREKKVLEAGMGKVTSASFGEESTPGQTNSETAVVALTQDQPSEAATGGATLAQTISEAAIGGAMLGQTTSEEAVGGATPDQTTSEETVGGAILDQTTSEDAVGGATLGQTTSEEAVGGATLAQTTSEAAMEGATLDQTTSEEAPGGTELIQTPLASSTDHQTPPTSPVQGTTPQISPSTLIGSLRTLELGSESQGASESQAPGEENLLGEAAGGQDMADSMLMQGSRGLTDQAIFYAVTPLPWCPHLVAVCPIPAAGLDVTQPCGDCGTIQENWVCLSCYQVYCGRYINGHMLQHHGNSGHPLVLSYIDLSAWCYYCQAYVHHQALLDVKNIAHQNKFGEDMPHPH
# Experimental: (§1) Human HDAC Enzyme Inhibitor Fluor-De-Lys Assay
# (§2) Recombinant human HDAC8 (BML-SE145-0100) and HDAC10 (BML-SE559-0050) enzymes, HDAC substrates BML-KI104 and BML-KI178, and HDAC developer solutions BML-KI105 and BML-KI176 were purchased from Enzo Life Sciences. […] HDAC inhibitor suberoylanilide hydroxamic acid (SAHA) was obtained from Indofine and trichostatin A (TSA) was obtained from Sigma-Aldrich.
# (§3) The histone deacetylase activities of HDAC1, HDAC2, HDAC3, HDAC6, and HDAC8 were measured in modified FLUOR DE LYS assays in 384-well format. In this assay, HDAC enzymes are initially incubated with an ε-acetyl (or -trifluoroacetyl)-L-lysine-containing substrate with a C-terminal amide having aminomethylcoumarin as the amine component. HDACs cleave the ε-acetyl group, rendering the resulting product susceptible to AMC cleavage by trypsin. The released AMC is then detected by its fluorescence.
# (§4) The HDAC3/SMRT assay employed buffer B, consisting of 20 mM HEPES, pH 8.0, 1 mM MgCl2, 50 mM NaCl, 2.7 mM KCl, 0.05% BSA, 0.005% Tween 20, and 10 μM IP4. […] The HDAC8 assay employed buffer D, consisting of 20 mM HEPES, pH 8.0, 1 mM MgCl2, 100 mM NaCl, 20 mM KCl, 0.10% n-octyl-β-D-glucoside (Anatrace) and 0.05% BSA. All steps were performed at room temperature (23° C.). The assay was performed by pre-incubating serial dilutions of test compounds with the target HDAC prior to initiation with substrate. Each compound was titrated in a 10-point dose response, using a 1:3 fold dilution scheme, with 0.15 ul of solution added by ECH0555 to the plate, followed by the addition of 20 μl of the appropriate HDAC isoform diluted in appropriate assay buffer. […] Final conditions used for each assay were: 1. HDAC 1, 0.3 nM total enzyme, 20 μM substrate BML-KI104; 2. […] HDAC 3/SMRT, 0.3 nM total enzyme, 20 μM substrate BML-KI104; 4. […] The reactions were stopped and developed by addition of 30 ul of HDAC developer solution containing a saturating level of HDAC inhibitor as follows: 1.
# [2] = target: T2, Recombinant human HDAC8 (Homo sapiens, UniProt Q9BY41); assay: Human HDAC enzyme inhibitor Fluor-de-Lys assay, HDAC8; assay type: biochemical
# T2 construct: purchased Enzo Life Sciences BML-SE145-0100
# T2 sequence (Q9BY41 1-377): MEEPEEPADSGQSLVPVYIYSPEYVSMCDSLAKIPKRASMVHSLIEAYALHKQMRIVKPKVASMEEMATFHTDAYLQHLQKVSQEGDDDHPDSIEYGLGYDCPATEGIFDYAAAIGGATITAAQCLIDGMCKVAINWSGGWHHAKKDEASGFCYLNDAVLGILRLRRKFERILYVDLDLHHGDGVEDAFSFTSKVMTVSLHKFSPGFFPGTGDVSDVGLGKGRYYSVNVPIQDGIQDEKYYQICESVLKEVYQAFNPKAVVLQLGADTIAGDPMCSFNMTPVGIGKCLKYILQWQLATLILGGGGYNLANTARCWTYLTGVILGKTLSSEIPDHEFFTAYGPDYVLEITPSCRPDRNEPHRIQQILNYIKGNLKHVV
# Experimental: as §1, §2, §3, §4
# [3] = test system: KARN cells (Jurkat 2C4); assay: cells; assay type: cell-based
# Experimental: KARN cells (Jurkat 2C4) were licensed from the laboratory of Dr. John Karn, Case Western Reserve University, School of Medicine. […] An atmosphere of 5% CO2 and 90% humidity was used for all culture work.
# Day 1: After the 3-4 day growth period, the cells were transferred from the T175 flask to a 50 ml conical tube and gently pelleted at 1000 rpm for 5 minutes. […] These flasks were returned to the incubator.
# Day 2: Cell Preparation: The next day, the cells were transferred from each T175 flask to an individual 50 ml conical tube and gently pelleted at 1000 rpm for 5 minutes. The cells were gently resuspended in assay media (30 ml) and pelleted again. […] The cells were counted using the ViCell (Beckman Coulter) and diluted as necessary. […] The plates were covered and returned to the incubator prior to compound addition.
# The reference compounds, DMSO and SAHA were then added to the compound plate. […] The final high concentration for SAHA and the test compounds in the assays was 40 μM. The final DMSO concentration in all wells was 0.4%. The minimal induction reference compound used was DMSO and the maximal induction reference compound used was SAHA (2 μM final concentration in the assay).
# Day 3: The luciferase detection reagent was prepared by transferring the contents of one bottle of Steady-Glo buffer to one bottle of Steady-Glo aubstrate (Steady-Glo Luciferase Assay System, Promega, catalog number E2520), followed by gently mixing until the substrate was thoroughly dissolved and the solution was equilibrated to room temperature. […] The Steady-Glo Reagent was added to the plates (30 μl/well), which were then covered with a black lid and incubated for 10 minutes at room temperature. The plates were then read for luminescence on an Envision (Perkin Elmer) using the ultrasensitive mode (US LUM), […] and 384-well aperture. Luminescence counts in the DMSO reference wells were considered as 0% induction, while those in the 2 μM SAHA reference wells were considered as 100% induction. Dose response curves were plotted as test compound concentration (X-axis) vs. percent activation (Y-axis) using a 4-parameter fit based on the Levenberg-Marquardt algorithm.
# [4] = read-out: Karn EC50 (nM) 0.1% NHS, 0.1% normal human serum
# [5] = read-out: Karn EC50 (nM) 5% NHS, 5% normal human serum
# [6] = recombinant human HDAC8, Fluor-de-Lys assay
# [7] = Homo sapiens, Jurkat, read-out: Karn EC50 (nM) 0.1% NHS, 0.1% normal human serum, luciferase induction, 100% = 2 μM SAHA
# [8] = Homo sapiens, Jurkat, read-out: Karn EC50 (nM) 5% NHS, 5% normal human serum, luciferase induction, 100% = 2 μM SAHA
# [9] = Homo sapiens, Jurkat, read-out: Karn EC50 (nM) 0.1% NHS, 0.1% normal human serum
# [10] = Homo sapiens, Jurkat, read-out: Karn EC50 (nM) 5% NHS, 5% normal human serum
structure (smiles),measurement,setting,value
"CCC(=O)CCCCC[C@H](NC(=O)C1CC12CCC(N(C)C)CC2)c1ncc(-c2cc3ccccc3nc2OC)[nH]1 (single isomer, unassigned) [Compound 127]",IC50,[1],364 nM
same,IC50,[2],76 nM
same,EC50,[3]; [4],37 nM
same,EC50,[3]; [5],60 nM
"CCC(=O)CCCCC[C@H](NC(=O)C1CC12CCC(N(C)C)CC2)c1ncc(-c2cc3ccccc3nc2OC)[nH]1 (single isomer, unassigned) [Compound 128]",IC50,[1],759 nM
same,IC50,[2],5580 nM
same,EC50,[3]; [4],442 nM
same,EC50,[3]; [5],1140 nM
"CCC(=O)CCCCC[C@H](NC(=O)[C@@H]1CC12CCN(C(N)=O)CC2)c1ncc(-c2cc3ccccc3nc2OC)[nH]1 (single isomer, unassigned) [Compound 318]",IC50,"[1]; HDAC6, Fluor-de-Lys assay",551 nM
same,IC50,[2]; [6],1200 nM
same,EC50,[3]; [7],861 nM
same,EC50,[3]; [8],4600 nM
"CCC(=O)CCCCC[C@H](NC(=O)[C@H]1CC12CCN(C(N)=O)CC2)c1ncc(-c2cc3ccccc3nc2OC)[nH]1 (single isomer, unassigned) [Compound 319]",IC50,"[1]; HDAC6, Fluor-de-Lys assay",1170 nM
same,IC50,[2]; [6],2270 nM
same,EC50,[3]; [7],1560 nM
same,EC50,[3]; [8],9850 nM
"CCC(=O)CCCCC[C@H](NC(=O)[C@@H]1CC12CCN(C)CC2)c1ncc(-c2cc3ccccc3nc2OC)[nH]1 (single isomer, unassigned) [Compound 320]",IC50,"[1]; HDAC6, Fluor-de-Lys assay",709 nM
same,IC50,[2]; [6],14600 nM
same,EC50,[3]; [7],339 nM
same,EC50,[3]; [8],1370 nM
"CCC(=O)CCCCC[C@H](NC(=O)[C@H]1CC12CCN(C)CC2)c1ncc(-c2cc3ccccc3nc2OC)[nH]1 (single isomer, unassigned) [Compound 321]",IC50,"[1]; HDAC6, Fluor-de-Lys assay",158 nM
same,IC50,[2]; [6],3380 nM
same,EC50,[3]; [7],27 nM
same,EC50,[3]; [8],83 nM
"CCC(=O)CCCCC[C@H](NC(=O)[C@@H]1CC12CCN(C)CC2)c1ncc(-c2cc3ccccc3nc2O)[nH]1 (single isomer, unassigned) [Compound 324]",EC50,[3]; [7],1170 nM
same,EC50,[3]; [8],1210 nM
"CCC(=O)CCCCC[C@H](NC(=O)[C@H]1CC12CCN(C)CC2)c1ncc(-c2cc3ccccc3nc2O)[nH]1 (single isomer, unassigned) [Compound 325]",EC50,[3]; [7],154 nM
same,EC50,[3]; [8],216 nM
CCC(=O)CCCCC[C@H](NC(=O)[C@H]1CC12CCOCC2)c1ncc(-c2cc3ccccc3nc2OC)[nH]1 [Compound 63],IC50,[1],619 nM
same,IC50,[2],3090 nM
same,EC50,[3]; [9],234 nM
same,EC50,[3]; [10],1790 nM
CCC(=O)CCCCC[C@H](NC(=O)[C@@H]1CC12CCOCC2)c1ncc(-c2cc3ccccc3nc2OC)[nH]1 [Compound 64],IC50,[1],3580 nM
same,IC50,[2],6350 nM
same,EC50,[3]; [9],647 nM
same,EC50,[3]; [10],5040 nM
CCC(=O)CCCCC[C@H](NC(=O)[C@H]1CC12CCN(CC)CC2)c1ncc(-c2ccc3c(=O)n(CC)ccc3c2)[nH]1 [Compound 92],IC50,[1],2980 nM
same,IC50,[2],6260 nM
same,EC50,[3]; [9],52 nM
same,EC50,[3]; [10],56 nM
CCC(=O)CCCCC[C@H](NC(=O)[C@@H]1CC12CCN(C)CC2)c1ncc(-c2ccc3ncccc3c2)[nH]1 [Compound 281],EC50,[3]; [7],2140 nM
same,EC50,[3]; [8],2170 nM
CCC(=O)CCCCC[C@H](NC(=O)[C@H]1CC12CCN(C)CC2)c1ncc(-c2ccc3ncccc3c2)[nH]1 [Compound 282],EC50,"[3]; read-out: Karn EC50 (nM) 0.1% NHS, 0.1% normal human serum, luciferase induction, 100% = 2 μM SAHA",294 nM
same,EC50,"[3]; read-out: Karn EC50 (nM) 5% NHS, 5% normal human serum, luciferase induction, 100% = 2 μM SAHA",247 nM
CCC(=O)CCCCC[C@H](NC(=O)[C@H]1C[C@]12CCN(C)C2)c1ncc(-c2cc3ccccc3nc2OC)[nH]1 [Compound 327],IC50,[2]; [6],3870 nM
same,EC50,[3]; [7],73 nM
same,EC50,[3]; [8],232 nM

# — patent US12590099B2, “Inhibitors of histone deacetylase useful for the treatment or prevention of HIV infection” (Merck Sharp & Dohme LLC, priority 2018, dated 2026)
